The values that follow come from patent publication US20240352309A1, “FLUORESCENT DYE, AND PREPARATION METHOD THEREFOR AND USE THEREOF” (FLUORESCENCE DIAGNOSIS (SHANGHAI) BIOTECH COMPANY LTD., priority 2021, published 2024).

The structures appear in SMILES notation.

This data set can be described thus: Fluorescence emission in glycerol and methanol (Test Example 1). In kind it is physicochemical. Conditions: for Fluorescence intensity ratio in glycerol and methanol: 1×10^−5 M in glycerol vs methanol, maximum excitation wavelength; for Emission wavelength: 1×10^−5 M, excited at maximum excitation wavelength of each dye. On the procedure: The fluorescent dye (molecular rotors) prepared in Examples dye1-dye42 were dissolved in DMSO each to prepare a mother solution with a concentration of 1×10^−2 M, and each mother solution was added to glycerol and methanol respectively and was mixed well, and a solution with a final concentration of 1×10^−5 M was prepared.

In the case of `CN(CCO)c1cc2sc(/C=C3\SC(=S)NC3=S)cc2s1` [dye14], the “Fluorescence intensity ratio in glycerol and methanol” value (from here on “Fluorescence intensity ratio”) came to 852; the Emission wavelength is 720 nm.
Turning to `CN(C)c1ccc2cc(/C=C3\SC(=S)N(CCC(=O)O)C3=S)oc2c1` [dye31], the “Fluorescence intensity ratio” value is reported as 980; the Emission wavelength stood at 685 nm.
Taken in the same sequence, the figures for `CN(CCO)c1ccc2nc(/C=C3\SC(=S)NC3=O)sc2c1` [dye27] were 765 and 590 nm.
On the same counts, the results for `CN(CCO)c1cc2cc3sc(/C=C4\OC(=S)NC4=S)cc3cc2s1` [dye38] are 741 and 730 nm.
As for `CN(C)CCN(C)c1ccc2cc(/C=C3\SC(=O)NC3=O)sc2c1` [dye24], the “Fluorescence intensity ratio” value turned out to be 465; the Emission wavelength was 750 nm.
On the same counts, the results for `CCN1C(=O)/C(=C/c2ncc(N(C)CCO)s2)SC1=S` [dye2] are 587 and 532 nm.
On the same counts, the results for `CN(CCO)c1ccc2c(c1)sc1cc(/C=C3\SC(=S)NC3=O)sc12` [dye36] are 510 and 735 nm.
Taken in the same sequence, the figures for `CN(CCNS(C)(=O)=O)c1ccc2cc(/C=C3\NC(=S)NC3=O)sc2c1` [dye23] were 985 and 640 nm.
As for `CN(C)c1ccc2cc(/C=C3\NC(=S)NC3=S)oc2c1` [dye32], the “Fluorescence intensity ratio” value is given as 687; the Emission wavelength was found to be 654 nm.
On the same counts, the results for `CN1CCSc2cc(/C=C3\SC(=O)NC3=O)ccc21` [dye5] are 1021 and 550 nm.
As for `CCN1C(=O)S/C(=C\c2cc3ccc(N(C)CCO)cc3o2)C1=O` [dye28], the “Fluorescence intensity ratio” value turned out to be 682; the Emission wavelength was found to be 690 nm.
On the same counts, the results for `CN(C)c1ccc2nc(/C=C3\SC(=N)NC3=N)oc2c1` [dye33] are 461 and 622 nm.
On to `O=C1NC(=S)S/C1=C\c1cc2sc(N(CCO)CCO)cc2s1` [dye20], for which the “Fluorescence intensity ratio” value amounted to 1133; the Emission wavelength turned out to be 650 nm.
Take `CN(CCO)c1ccc2c(c1)C(C)(C)c1cc(/C=C3\SC(=S)NC3=S)sc1-2` [dye39]: the “Fluorescence intensity ratio” value is given as 627; the Emission wavelength was 820 nm.
On the same counts, the results for `CN(CCO)c1ccc2c(c1)C(C)(C)C(/C=C1\SC(=S)NC1=O)=N2` [dye45] are 562 and 717 nm.
As for `CN(CCO)c1cc2sc(/C=C3\SC(=O)NC3=O)cc2s1` [dye11], the “Fluorescence intensity ratio” value was 954; the Emission wavelength is 590 nm.
As for `CN(CCO)c1cc2c(s1)-c1sc(/C=C3\OC(=N)NC3=N)cc1[Si]2(C)C` [dye37], the “Fluorescence intensity ratio” value is reported as 620; the Emission wavelength worked out at 720 nm.
For the molecule `CN(CCO)c1ccc2c(c1)C(C)(C)c1cc(/C=C3\SC(=S)NC3=O)ccc1-2` [dye35], the “Fluorescence intensity ratio” value was 530; the Emission wavelength is 740 nm.
With `CN1C(=O)/C(=C/c2nc3ccc(N(C)CCO)cc3o2)NC1=S` [dye29], the “Fluorescence intensity ratio” value came to 721; the Emission wavelength is 650 nm.
Taken in the same sequence, the figures for `CN(CCO)c1cc2c(s1)-c1sc(/C=C3\SC(=S)NC3=S)cc1C2(C)C` [dye42] were 364 and 800 nm.
As to `CCCCCCCCCCN(C)c1cc2sc(/C=C3\SC(=S)N(C)C3=O)cc2s1` [dye19], the “Fluorescence intensity ratio” value amounted to 1098; the Emission wavelength is 650 nm.
Taken in the same sequence, the figures for `CN(CCO)c1cc2sc(/C=C3\NC(=S)N(CCC(=O)O)C3=O)cc2s1` [dye17] were 993 and 630 nm.
